Results as given in ChEMBL document CHEMBL1649095, “A κ Opioid Pharmacophore Becomes a Spinally Selective κ-δ Agonist When Modified with a Basic Extender Arm” (2011).
Activity calls are given as the source filed them. No cut-off for these calls is given here.

Key:
Mus musculus [1] = test: Antinociceptive activity in icv dosed HSD:ICR(CD1) mouse by tail flick test; assay type: functional
Mus musculus [2] = test: Antinociceptive activity in intrathecally dosed HSD:ICR(CD1) mouse by tail flick test; assay type: functional
Mus musculus [3] = test: Potency index, ratio of antinociceptive ED50 in icv dosed HSD:ICR(CD1) mouse to antinociceptive ED50 in intrathecally dosed HSD:ICR(CD1) mouse; assay type: functional
Mus musculus [4] = test: Ratio of antinociceptive ED80 in intrathecally dosed HSD:ICR(CD1) mouse coadministered with 2.5 nmol kappa opioid receptor antagonist norBNI to ED80 in intrathecally dosed HSD:ICR(CD1) mouse; assay type: functional
HEK293 [5] = test: Selectivity for kappa/delta opioid receptor expressed in HEK293 cells over mu opioid receptor expressed in HEK293 cells by intracellular calcium release assay; assay type: cell-based
Mus musculus [6] = test: Ratio of antinociceptive ED80 in intrathecally dosed HSD:ICR(CD1) mouse coadministered with 5 nmol delta opioid receptor antagonist NTI to ED80 in intrathecally dosed HSD:ICR(CD1) mouse; assay type: functional
HEK293 [7] = test: Selectivity for kappa/delta opioid receptor expressed in HEK293 cells over kappa opioid receptor expressed in HEK293 cells by intracellular calcium release assay; assay type: cell-based
[8] = biological target: Opioid receptors; delta & kappa (Homo sapiens) (UniProt P41145+P41143); test: Agonist activity at kappa/delta opioid receptor expressed in HEK293 cells coexpressing chimeric Giiq protein assessed as stimulation of intracellular calcium; assay type: functional, cell-based
HEK293 [9] = test: Selectivity for kappa/delta opioid receptor expressed in HEK293 cells over kappa/mu opioid receptor expressed in HEK293 cells by intracellular calcium release assay; assay type: cell-based
HEK293 [10] = test: Selectivity for kappa/delta opioid receptor expressed in HEK293 cells over mu/delta opioid receptor expressed in HEK293 cells by intracellular calcium release assay; assay type: cell-based

Opioid receptors; delta & kappa (Homo sapiens), sequence (P41143 whole entry, looked up): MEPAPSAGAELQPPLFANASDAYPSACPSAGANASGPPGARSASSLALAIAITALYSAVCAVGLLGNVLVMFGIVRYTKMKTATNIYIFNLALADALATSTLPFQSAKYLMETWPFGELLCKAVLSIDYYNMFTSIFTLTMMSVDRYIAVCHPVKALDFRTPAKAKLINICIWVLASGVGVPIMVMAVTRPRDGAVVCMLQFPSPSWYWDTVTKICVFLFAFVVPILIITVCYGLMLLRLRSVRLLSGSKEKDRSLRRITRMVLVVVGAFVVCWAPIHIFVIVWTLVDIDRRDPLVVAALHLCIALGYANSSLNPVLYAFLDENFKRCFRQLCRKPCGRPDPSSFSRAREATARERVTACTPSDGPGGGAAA
Opioid receptors; delta & kappa (Homo sapiens), sequence (P41145 whole entry, looked up): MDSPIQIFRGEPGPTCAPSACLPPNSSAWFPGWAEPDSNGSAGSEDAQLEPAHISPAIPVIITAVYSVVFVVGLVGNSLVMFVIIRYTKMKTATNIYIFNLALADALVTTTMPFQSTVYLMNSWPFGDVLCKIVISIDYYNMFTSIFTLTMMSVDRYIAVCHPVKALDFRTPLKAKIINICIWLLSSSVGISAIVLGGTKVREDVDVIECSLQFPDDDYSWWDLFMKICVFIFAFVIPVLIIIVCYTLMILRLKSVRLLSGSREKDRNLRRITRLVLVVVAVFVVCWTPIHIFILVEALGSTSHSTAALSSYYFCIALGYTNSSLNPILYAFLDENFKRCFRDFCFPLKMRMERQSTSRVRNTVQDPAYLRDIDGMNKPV

Row | SMILES | ED50 (Mus musculus [1]) | ED50 (Mus musculus [2]) | Ratio ED50 (Mus musculus [3]) | Ratio (Mus musculus [4]) | Selectivity ratio (HEK293 [5]) | Ratio (Mus musculus [6]) | Selectivity ratio (HEK293 [7]) | Activity [8] | Selectivity ratio (HEK293 [9]) | Selectivity ratio (HEK293 [10])
1 | CNCCCCNC(=O)COCC(=O)NCC(=O)Nc1cccc([C@@H](CN2CCCC2)N(C)C(=O)Cc2ccc(Cl)c(Cl)c2)c1 | 0.48 nmol | 0.17 nmol | 2.81 |  |  |  |  |  |  | 
2 | CNCCCCNC(=O)COCC(=O)Nc1cccc([C@@H](CN2CCCC2)N(C)C(=O)Cc2ccc(Cl)c(Cl)c2)c1 | 0.52 nmol | 0.15 nmol | 3.45 |  |  |  |  |  |  | 
3 | CNCCCNC(=O)COCC(=O)NCC(=O)NCC(=O)Nc1cccc([C@@H](CN2CCCC2)N(C)C(=O)Cc2ccc(Cl)c(Cl)c2)c1 | 0.58 nmol | 0.0045 nmol | 130.91 | 28.5 | 66 | 9.97 | 66 | Active | 66 | 66
4 | CN(C(=O)Cc1ccc(Cl)c(Cl)c1)[C@H](CN1CCCC1)c1cccc(NC(=O)CNC(=O)CNC(=O)COCC(=O)NCCCNC=O)c1 | 0.47 nmol | 0.02 nmol | 23.44 |  |  |  |  |  |  | 
5 | CNCCNC(=O)COCC(=O)NCC(=O)NCC(=O)NCC(=O)Nc1cccc([C@@H](CN2CCCC2)N(C)C(=O)Cc2ccc(Cl)c(Cl)c2)c1 | 0.4 nmol | 0.035 nmol | 11.43 |  |  |  |  |  |  | 
